# In ChEMBL document CHEMBL4371066, “Synthesis and characterization of a photoresponsive doxorubicin/combretastatin A4 hybrid prodrug” (Bioorg Med Chem Lett, 2019):
# Calls of active or inactive are those of the source. The calls are words filed in the database; no cut-off is given here.
# How the values were obtained:
# Format in all cases: functional, cell-based
# MDA-MB-231 [1] = assay: Cytotoxicity against human MDA-MB-231 cells assessed as reduction in cell viability at 4 to 8 uM measured after 24 hrs by CCK8 assay
# MDA-MB-231 [2] = assay: Phototoxicity against human MDA-MB-231 cells assessed as reduction in cell viability at 4 to 8 uM irradiated with 50 mW cm'-2 UV light for 6 mins and measured after 24 hrs by CCK8 assay
# MDA-MB-231 [3] = assay: Cytotoxicity against human MDA-MB-231 cells assessed as reduction in cell viability at 2 to 8 uM measured after 24 hrs by CCK8 assay
# MDA-MB-231 [4] = assay: Phototoxicity against human MDA-MB-231 cells assessed as reduction in cell viability at 2 to 8 uM irradiated with 50 mW cm'-2 UV light for 6 mins and measured after 24 hrs by CCK8 assay
SMILES,Activity (MDA-MB-231 [1]),Activity (MDA-MB-231 [2]),Activity (MDA-MB-231 [3]),Activity (MDA-MB-231 [4])
COc1cccc2c1C(=O)c1c(O)c3c(c(O)c1C2=O)C[C@@](O)(C(=O)CO)C[C@@H]3O[C@H]1C[C@H](N)[C@H](O)[C@H](C)O1,Active,Active,–,–
COc1ccc(/C=C\c2cc(OC)c(OC)c(OC)c2)cc1O,–,–,Active,Active
